Drawing on BindingDB's records for PubMed 36327695 (n/a, 2022), this text covers IC50 and Ki for 5 compounds.

Molecules are shown by their SMILES.

Assay [1] concerns the target T1, Maltase-glucoamylase (Homo sapiens, UniProt O43451). Put plainly: Inhibition of alpha-glucosidase (unknown origin) using pNPG as substrate preincubated with enzyme for 15 mins followed by substrate addition and measured after 10 mins by microplate reader analysis.
For assay [2], the target named is T1, Maltase-glucoamylase. Description: Non-competitive inhibition of alpha-glucosidase (unknown origin) using pNPG as substrate preincubated with enzyme for 15 mins followed by substrate addition and measured for 15 mins by Dixon plot analysis.

T1 sequence (O43451 whole entry): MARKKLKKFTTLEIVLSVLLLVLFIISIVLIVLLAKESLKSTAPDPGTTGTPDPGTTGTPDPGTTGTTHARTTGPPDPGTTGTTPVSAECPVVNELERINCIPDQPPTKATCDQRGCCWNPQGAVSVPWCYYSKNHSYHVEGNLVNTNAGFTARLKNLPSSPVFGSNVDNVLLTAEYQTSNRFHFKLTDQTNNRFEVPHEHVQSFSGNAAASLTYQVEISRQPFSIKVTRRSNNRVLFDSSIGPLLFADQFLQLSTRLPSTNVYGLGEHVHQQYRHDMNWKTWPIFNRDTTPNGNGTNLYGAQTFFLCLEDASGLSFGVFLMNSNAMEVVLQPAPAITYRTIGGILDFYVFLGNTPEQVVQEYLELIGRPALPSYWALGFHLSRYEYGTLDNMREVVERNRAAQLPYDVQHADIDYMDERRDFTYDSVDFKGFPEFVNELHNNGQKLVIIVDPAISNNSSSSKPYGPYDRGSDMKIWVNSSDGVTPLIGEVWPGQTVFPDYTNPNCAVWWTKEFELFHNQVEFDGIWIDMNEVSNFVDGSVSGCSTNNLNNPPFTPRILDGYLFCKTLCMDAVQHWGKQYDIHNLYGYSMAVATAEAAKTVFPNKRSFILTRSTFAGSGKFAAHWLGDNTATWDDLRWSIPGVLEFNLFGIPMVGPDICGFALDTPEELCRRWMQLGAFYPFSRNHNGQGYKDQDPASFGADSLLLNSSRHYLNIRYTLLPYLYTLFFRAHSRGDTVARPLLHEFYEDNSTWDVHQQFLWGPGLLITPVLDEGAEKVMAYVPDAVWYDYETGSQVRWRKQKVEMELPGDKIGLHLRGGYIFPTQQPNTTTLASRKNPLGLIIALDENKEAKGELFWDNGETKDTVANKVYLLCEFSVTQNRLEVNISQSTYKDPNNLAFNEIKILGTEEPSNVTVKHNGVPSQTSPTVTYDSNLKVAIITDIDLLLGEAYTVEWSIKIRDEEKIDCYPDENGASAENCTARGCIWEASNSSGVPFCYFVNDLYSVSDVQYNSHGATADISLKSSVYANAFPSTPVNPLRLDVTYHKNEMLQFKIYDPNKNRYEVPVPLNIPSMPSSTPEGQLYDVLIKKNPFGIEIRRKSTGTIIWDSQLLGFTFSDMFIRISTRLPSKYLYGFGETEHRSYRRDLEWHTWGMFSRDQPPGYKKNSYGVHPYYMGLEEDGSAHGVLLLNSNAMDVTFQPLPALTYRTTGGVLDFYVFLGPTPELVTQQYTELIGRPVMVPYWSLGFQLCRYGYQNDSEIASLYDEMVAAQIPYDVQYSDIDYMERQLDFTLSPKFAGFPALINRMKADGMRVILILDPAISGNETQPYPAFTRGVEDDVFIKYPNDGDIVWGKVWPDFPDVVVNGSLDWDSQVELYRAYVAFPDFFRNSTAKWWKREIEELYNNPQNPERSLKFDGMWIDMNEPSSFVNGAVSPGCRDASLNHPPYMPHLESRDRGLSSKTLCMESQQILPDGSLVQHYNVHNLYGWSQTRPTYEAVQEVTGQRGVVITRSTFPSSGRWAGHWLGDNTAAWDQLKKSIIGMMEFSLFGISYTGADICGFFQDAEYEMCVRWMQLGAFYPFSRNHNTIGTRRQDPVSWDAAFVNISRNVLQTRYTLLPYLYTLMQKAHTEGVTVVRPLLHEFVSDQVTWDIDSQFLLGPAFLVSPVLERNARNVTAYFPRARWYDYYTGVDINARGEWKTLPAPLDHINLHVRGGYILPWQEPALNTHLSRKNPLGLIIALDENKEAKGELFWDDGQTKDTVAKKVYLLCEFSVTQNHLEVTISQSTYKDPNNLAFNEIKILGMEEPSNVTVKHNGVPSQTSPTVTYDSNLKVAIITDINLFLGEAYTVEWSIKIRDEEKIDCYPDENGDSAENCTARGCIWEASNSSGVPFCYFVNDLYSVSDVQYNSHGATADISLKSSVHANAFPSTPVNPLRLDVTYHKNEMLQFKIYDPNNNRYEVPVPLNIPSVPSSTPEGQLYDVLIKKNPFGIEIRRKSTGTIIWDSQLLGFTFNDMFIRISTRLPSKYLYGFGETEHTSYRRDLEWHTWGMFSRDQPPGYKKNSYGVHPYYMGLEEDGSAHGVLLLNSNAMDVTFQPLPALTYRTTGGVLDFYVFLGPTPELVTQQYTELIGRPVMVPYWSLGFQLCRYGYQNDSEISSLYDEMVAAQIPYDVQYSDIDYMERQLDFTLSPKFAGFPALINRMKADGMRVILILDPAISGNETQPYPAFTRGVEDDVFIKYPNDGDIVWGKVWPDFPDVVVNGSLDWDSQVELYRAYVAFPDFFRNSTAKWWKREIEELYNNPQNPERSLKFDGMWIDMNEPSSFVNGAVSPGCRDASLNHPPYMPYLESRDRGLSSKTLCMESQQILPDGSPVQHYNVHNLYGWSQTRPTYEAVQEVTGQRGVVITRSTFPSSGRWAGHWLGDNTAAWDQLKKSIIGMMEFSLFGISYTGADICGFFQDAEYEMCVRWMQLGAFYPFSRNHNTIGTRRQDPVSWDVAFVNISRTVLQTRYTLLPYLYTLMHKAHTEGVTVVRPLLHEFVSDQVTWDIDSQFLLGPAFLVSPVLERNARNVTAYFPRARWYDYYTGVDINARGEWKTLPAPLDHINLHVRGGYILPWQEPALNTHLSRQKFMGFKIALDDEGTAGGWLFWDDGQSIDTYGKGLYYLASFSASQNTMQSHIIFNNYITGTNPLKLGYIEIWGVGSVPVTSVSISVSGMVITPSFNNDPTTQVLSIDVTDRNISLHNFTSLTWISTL

For orientation: IC50 means the concentration that inhibits the measured activity by half. High values mean weaker potency, low ones greater potency. In turn, `C=CCc1cc(-c2ccc(O)c(CC=C)c2)c(O)c(C(c2ccc(OC)cc2)N2CCCCC2)c1` (configuration not stated) came in with a half-inhibitory concentration (IC50) against Maltase-glucoamylase [1] of 30.4 µM.

For the compound `C=CCc1cc(-c2ccc(O)c(CC=C)c2)c(O)c(C(c2cc(Cl)cc(Cl)c2)N2CCCCC2)c1` (configuration not stated), the 50% inhibitory concentration (IC50) against Maltase-glucoamylase [1] was 23.5 µM. For orientation: Ki means the equilibrium dissociation constant of an inhibitor or competing ligand from its target. In turn, `C=CCc1cc(-c2ccc(O)c(CC=C)c2)c(O)c(C(c2cc(Cl)cc(Cl)c2)N2CCC(C)CC2)c1` (configuration not stated) came in with a half-maximal inhibitory concentration (IC50) against Maltase-glucoamylase [1] of 14.9 µM. The compound also returned an inhibition constant (Ki) on Maltase-glucoamylase [2] of 1.7 µM. For `C=CCc1cc(-c2ccc(O)c(CC=C)c2)c(O)c(C(c2cc(Cl)cc(Cl)c2)N2CCOCC2)c1` (configuration not stated), in that order: 13.8 µM and 3.27 µM. Take `C=CCc1cc(-c2cc(CC=C)c(O)c(C(c3ccc(Cl)cc3)N3CCOCC3)c2)c(O)c(C(c2ccc(Cl)cc2)N2CCOCC2)c1` (configuration not stated): the IC50 against Maltase-glucoamylase [1] is 18.6 µM.
